Test system: pigs (barrows)
Test: Belly (fat) compression test in pigs fed conjugated fatty acids
Assay type: in vivo, pig
Method: Experiments were conducted to evaluate the effects of feeding eleostearic (18:3) conjugated fatty acids on pig growth, carcass characteristics, and fat firmness. Twenty-four pigs (barrows, castrated males, from PIC genetics) with a capacity for high rates of daily lean growth and reduced back fat were randomly assigned by litter mates, weight, and block to three dietary treatments. Group one was fed normal corn feed, group two received normal corn feed supplemented with CLA, and the third group received normal corn feed supplemented with conjugated linolenic acids, i.e., ClnAs (18:3 conjugated fatty acids). Pigs were penned individually and identified by ear tattoo. […]
Live weights were recorded to determine average daily gains Phase 1 (150 to 200 lbs), and Phase 2 (200 to 250 lbs). […]
When pigs reached 250 pounds body weight they were slaughtered, processed and standard carcass measurements were collected. […] Bellies from the eight pigs in each study group were evaluated for fat firmness evaluated by measuring belly thickness before and after compression. […] Fat compression was quantified by subtracting the compressed belly thickness from the initial belly thickness. Belly thickness was measured using a micrometer. Data were analyzed as a randomized complete block design using the GLM (General Linear Model) procedure of SAS (Statistical Analysis Systems). […]

Conjugated linoleic acid [NC + CLA]
fat firmness in pigs (in words) (addition to NC diets, versus NC diet): greater fat firmness
Pork Belly Compression (initial minus compressed belly thickness, 50 lb weight for one hour, 0.50% conjugated fatty acid in diet, smaller number = greater firmness, 8 pigs per group): 28.0 mm

Reference: patent US7786356B2, “Method for the production of calendic acid, a fatty acid containing delta 8,10,12 conjugated double bonds and related fatty acids having a modification at the delta 9 position” (E.I. du Pont de Nemours and Company, priority 1999, dated 2010)
